Test results published in patent US20030007948A1, “Adhesive treatment for skin yeast infections” (CLOSURE MEDICAL CORPORATION, priority 2001, published 2003).

Test: Observation of haloprogin / 2-octyl cyanoacrylate monomer composition after preparation
Assay type: physicochemical
Conditions: 30 mg haloprogin in 2 mL 2-octyl cyanoacrylate monomer
Protocol: A 2-octyl cyanoacrylate monomer composition is prepared by adding 30 mg of haloprogin, an anti-fungal agent, to 2 mL of 2-octyl cyanoacrylate monomer. The mixture is sealed in a glass vial and stirred. The characteristics of the composition are observed at about one minute after preparation and later at least twenty-four hours after preparation.

Clc1cc(Cl)c(OCC#CI)cc1Cl [haloprogin]
premature polymerization of the monomer (sealed glass vial, about one minute and at least twenty-four hours after preparation): does not cause premature polymerization
solubility in the monomer (observed at about one minute and at least twenty-four hours after preparation): soluble
